Here are results for two molecules from ChEMBL document CHEMBL1139998, “Design, synthesis, and binding studies of bidentate Zn-chelating peptidic inhibitors of glyoxalase-I” (Bioorg Med Chem Lett, 2007).

This test addresses T1, Glyoxalase I (Saccharomyces cerevisiae S288c, UniProt P50107).
T1 sequence (P50107 whole entry): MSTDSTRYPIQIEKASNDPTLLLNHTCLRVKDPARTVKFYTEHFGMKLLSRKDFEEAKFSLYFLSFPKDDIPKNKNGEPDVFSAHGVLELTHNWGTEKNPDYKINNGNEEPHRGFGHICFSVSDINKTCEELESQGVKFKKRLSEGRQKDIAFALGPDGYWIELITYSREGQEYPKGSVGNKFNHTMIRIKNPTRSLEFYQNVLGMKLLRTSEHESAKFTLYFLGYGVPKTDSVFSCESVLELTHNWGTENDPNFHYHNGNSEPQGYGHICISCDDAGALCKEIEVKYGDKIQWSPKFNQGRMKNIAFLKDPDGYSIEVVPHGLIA
Nature of the test: Inhibition of yeast glyoxalase 1.

Molecules are shown by their SMILES.

Take `N[C@@H](CCC(=O)N[C@@H](CCC(=O)CC(=O)OCc1ccc(Br)cc1)C(=O)NCC(=O)O)C(=O)O`: the affinity corresponds to a Ki of 66.9 µM. This counts as double-digit micromolar.
Molecule `COC(=O)CC(=O)CC[C@H](NC(=O)CC[C@H](N)C(=O)O)C(=O)NCC(=O)O` displayed a Ki of 112 µM.

In general, Ki refers to the equilibrium dissociation constant of an inhibitor or competing ligand from its target. The low end stands for a stronger hold on the target, the high end for a looser hold on the target.
